In patent publication US12630498B2 (Genzyme Corporation, priority 2019, dated 2026):
pEC50: −log10 of the molar value.

How the values were obtained:
[1] = molecular target: T1, CFTR-mediated transepithelial chloride transport in primary human bronchial epithelial cells from a ΔF508 homozygous CF donor (Homo sapiens, UniProt P13569, DEL508-508); assay: TECC24 recording of CFTR-mediated transepithelial chloride transport in CF-HBE cells (AUC fold over DMSO); format: cell-based; details: test agent 10 μM, 48 hours incubation, AUC of forskolin-stimulated IEQ relative to DMSO
T1 construct: Primary human bronchial epithelial cells from a ΔF508 homozygous CF donor; host or cells: primary CF-HBE cells, ΔF508 homozygous donor
T1 sequence (P13569 with tags, fused parts or gaps DEL508-508): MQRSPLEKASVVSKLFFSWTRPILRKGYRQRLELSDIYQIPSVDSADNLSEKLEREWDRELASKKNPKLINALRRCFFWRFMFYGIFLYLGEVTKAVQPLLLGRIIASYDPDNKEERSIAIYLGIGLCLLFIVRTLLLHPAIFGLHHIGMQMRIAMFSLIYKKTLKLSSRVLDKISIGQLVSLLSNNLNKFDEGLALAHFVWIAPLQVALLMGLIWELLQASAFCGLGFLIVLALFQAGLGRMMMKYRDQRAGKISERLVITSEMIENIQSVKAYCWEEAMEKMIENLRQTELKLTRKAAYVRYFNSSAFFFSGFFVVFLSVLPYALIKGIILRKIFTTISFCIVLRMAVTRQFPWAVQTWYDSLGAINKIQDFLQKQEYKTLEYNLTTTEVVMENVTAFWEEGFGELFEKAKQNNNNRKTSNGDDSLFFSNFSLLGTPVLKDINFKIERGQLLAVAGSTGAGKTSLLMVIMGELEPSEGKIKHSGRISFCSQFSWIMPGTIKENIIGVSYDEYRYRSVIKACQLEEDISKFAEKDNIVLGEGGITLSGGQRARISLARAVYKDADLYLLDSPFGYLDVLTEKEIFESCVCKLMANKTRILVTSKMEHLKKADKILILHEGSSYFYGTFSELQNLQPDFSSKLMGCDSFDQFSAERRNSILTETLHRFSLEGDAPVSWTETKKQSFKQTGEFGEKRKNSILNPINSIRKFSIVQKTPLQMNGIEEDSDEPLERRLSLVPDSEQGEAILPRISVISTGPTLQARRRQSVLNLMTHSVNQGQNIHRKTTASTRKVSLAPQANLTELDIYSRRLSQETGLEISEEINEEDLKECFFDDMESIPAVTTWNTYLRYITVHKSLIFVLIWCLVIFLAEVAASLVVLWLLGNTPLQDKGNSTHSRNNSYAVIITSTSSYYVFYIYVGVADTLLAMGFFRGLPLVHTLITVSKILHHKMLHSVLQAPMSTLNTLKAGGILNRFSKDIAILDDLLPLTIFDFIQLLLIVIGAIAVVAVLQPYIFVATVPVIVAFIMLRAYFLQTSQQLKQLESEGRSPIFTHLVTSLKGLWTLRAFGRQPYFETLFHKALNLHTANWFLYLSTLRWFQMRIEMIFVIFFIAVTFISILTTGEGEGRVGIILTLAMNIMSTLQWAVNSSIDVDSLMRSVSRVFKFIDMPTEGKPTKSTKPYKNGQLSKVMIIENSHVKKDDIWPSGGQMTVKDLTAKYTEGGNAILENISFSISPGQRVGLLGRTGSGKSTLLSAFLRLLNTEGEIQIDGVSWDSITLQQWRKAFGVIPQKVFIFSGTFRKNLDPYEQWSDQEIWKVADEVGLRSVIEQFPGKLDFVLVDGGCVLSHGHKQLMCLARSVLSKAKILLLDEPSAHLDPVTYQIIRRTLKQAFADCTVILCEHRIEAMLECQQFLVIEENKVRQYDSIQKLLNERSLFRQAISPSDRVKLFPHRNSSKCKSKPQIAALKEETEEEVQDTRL
Description: Example 316: TECC24 AUC Fold Over DMSO @ 10 uM
The effects of a test agent on CFTR-mediated transepithelial chloride transport was measured using TECC24 recording analysis. Test agents were solubilized in DMSO. Solubilized test agents were mixed with incubation medium containing DMEM/F12, Ultroser G (2%; Crescent Chemical, catalog #67042), Hyclone Fetal Clone II (2%; GE Healthcare, catalog #SH30066.02), bovine brain extract (0.25%; Lonza, catalog #CC-4098), insulin (2.5 μg/mL), IL-13 (10 ng/mL), hydrocortisone (20 nM), transferrin (2.5 μg/mL), triiodothyronine (500 nM), ethanolamine (250 nM), epinephrine (1.5 μM), phosphoethanolamine (250 nM), and retinoic acid (10 nM). Primary human bronchial epithelial cells from a ΔF508 homozygous CF donor (CF-HBE cells; from University of North Carolina Cystic Fibrosis Tissue Procurement Center), grown on Transwell HTS 24-well cell culture inserts (Costar, catalog #3378), were exposed to test agents or controls dissolved in incubation medium. The CF-HBE cells were cultured at 36.5° C. for 48 hours before TECC24 recordings were performed in the presence or absence of test agent, a positive control or vehicle (DMSO).
Following incubation, the transwell cell culture inserts containing the test agent or control-treated CF-HBE cells were loaded onto a TECC24 apparatus (TECC v7 or MTECC v2; EP Design) to record the transepithelial voltage (VT) and resistance (TEER) using 4 AgCl electrodes per well configured in current-clamp mode. The apical and basolateral bath solutions both contained (in mM) 140 NaCl, 5 KCl, 2 CaCl2), 1 MgCl2, 10 Hepes, and 10 glucose (adjusted to pH 7.4 with NaOH). To inhibit basal Na+ absorption, the ENaC inhibitor benzamil (10 μM) was added to the bath. Then, the adenylate cyclase activator, forskolin (10 μM), was added to the bath to activate CFTR. The forskolin-stimulated Cl-transport was halted by addition of CFTR inhibitor-172 (20 μM) to the bath at the end of the experiment to confirm specificity. VT and TEER recordings were digitally acquired at routine intervals using TECC or MTECC software (EP Design). VT and TEER were transformed into equivalent transepithelial Cl-current (IEQ), and the Area Under the Curve (AUC) of the IEQ time course between forskolin and CFTR inhibitor-172 addition was generated using Excel (Microsoft). Efficacy is expressed as the ratio of the test agent AUC divided by vehicle AUC. EC50s based on AUC are generated using the non-linear regression log(agonist) vs. response function in Prism software (GraphPad) with Hill Slope fixed=1.
If a test agent increased the AUC of the forskolin-stimulated IEQ relative to vehicle in CF-HBE cells, and this increase was inhibited by CFTR inhibitor-172, then the test agent was considered a CFTR corrector.

[2] = molecular target: T2, human Cystic Fibrosis Transmembrane Conductance Regulator (CFTR) harboring the ΔF508 mutation (Homo sapiens, UniProt P13569, DEL508-508); assay: H441 cell ΔF508-CFTR-HRP cell surface assay (Emax and EC50); format: cell-based; details: for Emax: NCI-H441, NA = Not active
T2 construct: expressed in transfected cells; host or cells: H441 carcinoma line (G418-selected)
T2 sequence (P13569 with tags, fused parts or gaps DEL508-508): as above
Summary of the method: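 H441 and 41o- bronchial epithelial cells expressing ΔF508-CFTR with an extracellular-loop-4 HRP tag were treated with a 15-point compound series (24.5–0.001 μM) for two nights, H441 at 27° C, 41o- at 37° C with 0.0005 mg/ml doxycycline. Surface HRP luminescence read; % of maximum VX809 signal and EC50 derived.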

## CC(OCc1ccccc1)[C@H](NC(=O)c1ccc2ccccc2c1OCc1ccc(OC(F)(F)F)cc1)C(=O)O (stereo in doubt) [Example 188, O-benzyl-N-(1-((4-(trifluoromethoxy)benzyl)oxy)-2-naphthoyl)-L-allothreonine]
[1]
  TECC24 AUC fold over DMSO @10 μM: C (“C” refers to AUC @10 uM <4)

## O=C(N[C@@H](Cc1ccc(C(F)(F)F)cc1)C(=O)O)c1ccc2cc(F)ccc2c1OCc1ccc(OC(F)(F)F)cc1 [Example 194, (S)-2-(6-fluoro-1-((4-(trifluoromethoxy)benzyl)oxy)-2-naphthamido)-3-(4-(trifluoromethyl)phenyl)propanoic Acid]
[1]
  TECC24 AUC fold over DMSO @10 μM: C (“C” refers to AUC @10 uM <4)

## CC(C)(C)C[C@H](NC(=O)c1ccc2cc(F)ccc2c1OCc1ccc(Cl)c(Cl)c1)C(=O)O [Example 211, (S)-2-(1-((3,4-dichlorobenzyl)oxy)-6-fluoro-2-naphthamido)-4,4-dimethylpentanoic Acid]
[1]
  TECC24 AUC fold over DMSO @10 μM: C (“C” refers to AUC @10 uM <4)

## CC(C)(C)c1ccc(COc2c(C(=O)N[C@@H](Cc3ccccc3)C(=O)O)ccc3ccccc23)cc1 [Example 96, (1-((4-(tert-butyl)benzyl)oxy)-2-naphthoyl)-L-phenylalanine]
[1]
  TECC24 AUC fold over DMSO @10 μM: C (“C” refers to AUC @10 uM <4)

## CCC(C)(C)[C@@H](NC(=O)c1ccc2ccc(C)cc2c1OCc1ccc(C(F)(F)F)cc1)C(=O)O [Example 305, (R)-3,3-dimethyl-2-(7-methyl-1-((4-(trifluoromethyl)benzyl)oxy)-2-naphthamido)pentanoic Acid]
[1]
  TECC24 AUC fold over DMSO @10 μM: A (“A” refers to AUC @10 uM >6)

## O=C(N[C@@H](Cc1ccccc1)C(=O)O)c1ccc2ccccc2c1OCc1ccc(F)cc1 [Example 94]
[1]
  TECC24 AUC fold over DMSO @10 μM: C (“C” refers to AUC @10 uM <4)

## CCC(C)(C)[C@H](NC(=O)c1ccc2cc(OC)ccc2c1OCc1ccc(SC(F)(F)F)cc1)C(=O)O [Example 32, (S)-2-(6-methoxy-1-((4-((trifluoromethyl)thio)benzyl)oxy)-2-naphthamido)-3,3-dimethylpentanoic Acid]
[2]
  pEC50: 5.82
  Emax: 44.3%

## CC(C)(C)C[C@H](NC(=O)c1ccc2cc(N)ccc2c1OCc1ccc(C(F)(F)F)cc1)C(=O)O [Example 186, (S)-2-(6-amino-1-((4-(trifluoromethyl)benzyl)oxy)-2-naphthamido)-4,4-dimethylpentanoic Acid]
[2]
  pEC50: 5.57
  Emax: 46.6%

## CC(OCc1ccccc1)[C@H](NC(=O)c1ccc2cc(F)ccc2c1OCc1ccc(OC(F)(F)F)cc1)C(=O)O (stereo in doubt) [Example 192, O-benzyl-N-(6-fluoro-1-((4-(trifluoromethoxy)benzyl)oxy)-2-naphthoyl)-L-allothreonine]
[2]
  Emax: 10.6%

## O=C(NC(C(=O)O)C(C(F)(F)F)C(F)(F)F)c1ccc2cc(F)ccc2c1OCc1ccc(C(F)(F)F)cc1 (stereo not drawn) [Example 182, 4,4,4-trifluoro-2-(6-fluoro-1-((4-(trifluoromethyl)benzyl)oxy)-2-naphthamido)-3-(trifluoromethyl)butanoic Acid]
[2]
  pEC50: 5.40
  Emax: 31.4%

## CC(C)(c1ccccc1)[C@H](NC(=O)c1ccc2cc(F)ccc2c1OCC1CCC(F)(F)CC1)C(=O)O [Example 7, (S)-2-(1-((4,4-difluorocyclohexyl)methoxy)-6-fluoro-2-naphthamido)-3-methyl-3-phenylbutanoic Acid]
[2]
  pEC50: 5.62
  Emax: 51.9%

## Cc1ccc2ccc(C(=O)N[C@H](C(=O)O)C3(C)CC3)c(OCc3ccc(C(F)(F)F)cc3)c2c1 [Example 229, (2S)-2-(1-methylcyclopropyl)-2-[[7-methyl-1-[[4-(trifluoromethyl)phenyl]methoxy]naphthalene-2-carbonyl]amino]acetic Acid]
[2]
  pEC50: 5.74
  Emax: 177%

## CC(C)C#CCOc1c(C(=O)N[C@H](C(=O)O)C(C)(C)C)ccc2cc(F)ccc12 [Example 224, (2S)-2-[[6-fluoro-1-(4-methylpent-2-ynoxy)naphthalene-2-carbonyl]amino]-3,3-dimethyl-butanoic Acid]
[2]
  pEC50: 4.89
  Emax: 119%

## CCC(C)(C)[C@H](NC(=O)c1ccc2cc(OC)ccc2c1OCc1ccc(C(F)(F)F)cc1)C(=O)O [Example 83, (S)-2-(6-methoxy-1-((4-(trifluoromethyl)benzyl)oxy)-2-naphthamido)-3,3-dimethylpentanoic Acid]
[2]
  pEC50: 5.85
  Emax: 58.9%

## CC(C)(SCC1CC1(F)F)[C@H](NC(=O)c1ccc2ccccc2c1OCc1ccc(S(C)(=O)=O)cc1)C(=O)O (stereo partly drawn) [Example 166, (2R)-3-(((2,2-difluorocyclopropyl)methyl)thio)-3-methyl-2-(1-((4-(methylsulfonyl)benzyl)oxy)-2-naphthamido)butanoic Acid]
[2]
  Emax: 6.6%

## CN(C)c1ccc2c(OCc3ccc(C(F)(F)F)cc3)c(C(=O)N[C@H](C(=O)O)C(C)(C)C)ccc2c1 [compound 85, (S)-2-(6-(dimethylamino)-1-((4-(trifluoromethyl)benzyl)oxy)-2-naphthamido)-3,3-dimethylbutanoic Acid]
[2]
  pEC50: 5.80
  Emax: 53%

## CC(C)(C)C[C@H](NC(=O)c1ccc2cc(F)ccc2c1OCC1CCC(F)(F)CC1)C(=O)O [Example 109, (S)-2-(1-((4,4-difluorocyclohexyl)methoxy)-6-fluoro-2-naphthamido)-4,4-dimethylpentanoic Acid]
[2]
  pEC50: 4.85
  Emax: 52.7%

## CO[C@@H](C)[C@H](NC(=O)c1ccc2ccccc2c1OCc1ccc(C(F)(F)F)cc1)C(=O)O [Example 135, O-methyl-N-(1-((4-(trifluoromethyl)benzyl)oxy)-2-naphthoyl)-L-allothreonine]
[2]
  pEC50: 5.33
  Emax: 93.5%

## O=C(N[C@H](C(=O)O)C12CC(C(F)(F)F)(C1)C2)c1ccc2ccccc2c1OCc1ccc(S(=O)(=O)C(F)(F)F)cc1 [Example 3, (S)-2-(3-(trifluoromethyl)bicyclo[1.1.1]pentan-1-yl)-2-(1-((4-((trifluoromethyl)sulfonyl)benzyl)oxy)-2-naphthamido)acetic Acid]
[2]
  pEC50: 5.66
  Emax: 18.1%

## CC(C)(S[C@@H]1C[C@@H]2CC[C@H]1C2)[C@H](NC(=O)c1ccc2ccccc2c1OCc1ccc(S(C)(=O)=O)cc1)C(=O)O [Example 176, (R)-3-(((1S,2R,4R)-bicyclo[2.2.1]heptan-2-yl)thio)-3-methyl-2-(1-((4-(methylsulfonyl)benzyl)oxy)-2-naphthamido)butanoic Acid]
[2]
  Emax: 38.4%

## O=C(N[C@@H](Cc1ccc(C(F)(F)F)cc1)C(=O)O)c1ccc2ccccc2c1OCc1nc2ccccc2s1 [Example 213, (S)-2-(1-(benzo[d]thiazol-2-ylmethoxy)-2-naphthamido)-3-(4-(trifluoromethyl)phenyl)propanoic Acid]
[2]
  pEC50: 4.88
  Emax: 87.2%

## Cc1cc(F)c2ccc(C(=O)N[C@H](C(=O)O)C(C)(C)C)c(OCc3ccc(OC(F)(F)F)cc3)c2c1 [Example 271, (2S)-2-[[5-fluoro-7-methyl-1-[[4-(trifluoromethoxy)phenyl]methoxy]naphthalene-2-carbonyl]amino]-3,3-dimethyl-butanoic Acid]
[2]
  pEC50: 6.70
  Emax: 261%

## CC(C)(C)[C@H](NC(=O)c1ccc2cc(F)ccc2c1OCC1CCC(F)(F)CC1)C(=O)O [Example 76, (S)-2-(1-((4,4-difluorocyclohexyl)methoxy)-6-fluoro-2-naphthamido)-3,3-dimethylbutanoic Acid]
[2]
  pEC50: 5.15
  Emax: 58.3%

## Nc1ccc2c(OCc3ccc(C(F)(F)F)cc3)c(C(=O)N[C@H](C(=O)O)C3CCCC3)ccc2c1 [Example 187, (S)-2-(6-amino-1-((4-(trifluoromethyl)benzyl)oxy)-2-naphthamido)-2-cyclopentylacetic Acid]
[2]
  pEC50: 4.94
  Emax: 70.8%
